Measurements reported in article PMC9371267 (PLoS Biology, 2022).
Substitutions are numbered along the chain they refer to.

How the values were obtained:
Format in all cases: cell-based
GALR2 H102^3.29A mutant = target: T1, GALR2 H102^3.29A mutant (Homo sapiens, UniProt O43603, H102A); assay: NanoBiT-based Gq activation assay, H102^3.29A; conditions: HEK293-A; HEK293A; expression ~WT (1:10); normalized to WT (1:1); mean ± SEM, n = 3; ** p < 0.01 vs expression-matched WT
T1 construct: expressed in transfected cells; host or cells: HEK293A
T1 sequence (O43603 1-387 H102A): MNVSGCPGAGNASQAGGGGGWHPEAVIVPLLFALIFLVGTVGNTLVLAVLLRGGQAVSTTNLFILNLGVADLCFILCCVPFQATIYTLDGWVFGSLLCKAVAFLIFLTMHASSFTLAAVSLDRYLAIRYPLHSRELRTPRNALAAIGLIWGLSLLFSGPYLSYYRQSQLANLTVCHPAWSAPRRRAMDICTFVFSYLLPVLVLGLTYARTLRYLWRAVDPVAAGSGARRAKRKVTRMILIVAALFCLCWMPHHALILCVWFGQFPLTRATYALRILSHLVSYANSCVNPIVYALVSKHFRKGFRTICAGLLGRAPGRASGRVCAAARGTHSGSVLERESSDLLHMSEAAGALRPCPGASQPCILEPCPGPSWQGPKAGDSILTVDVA
Protocol: (§1) After an incubation for 1 day, the transfected cells were harvested, pelleted with centrifugation, and suspended in 2 mL of Hank’s balanced saline solution containing 0.01% bovine serum albumin (BSA fatty acid–free grade, SERVA) and 5 mM HEPES (pH 7.4) (assay buffer). The cell suspension was dispensed in a white 96-well plate at a volume of 80 μl per well and mixed with 20 μl of 50 μM coelenterazine (custom-synthesized by Amadis Chemical) diluted in the assay buffer. After 2-h incubation at room temperature, the plate was measured for baseline luminescence (SpectraMax L, Molecular Devices). […] Kinetics data points from 5 min to 10 min were averaged and normalized to the initial count and used as a G-protein activation index. The G-protein activation signals were fitted to a 4-parameter sigmoidal concentration-response curve (GraphPad Prism8), and pEC50 values (negative logarithmic values of EC50 values) and Span values (“Top”–“Bottom”) were obtained. For individual experiments, we calculated Emax by normalizing Span to the WT GALR2 and ΔpEC50 by subtracting pEC50 of the WT GALR2 performed in parallel. We also calculated Emax/EC50 of GALR2 mutants relative to that of GALR2 WT, a dimensionless parameter known as relative intrinsic activity (RAi) and used its log-transformed value (Log RAi) to denote receptor activity.

[1] = target: T2, GALR2 Y164^4.64×65F mutant (Homo sapiens, UniProt O43603, Y164F); assay: NanoBiT-based Gq activation assay, Y164^4.64×65F; conditions: HEK293-A; HEK293A; expression ~WT (1:2.5); normalized to WT (1:1); mean ± SEM, n = 3; * p < 0.05 vs expression-matched WT
T2 construct: expressed in transfected cells; host or cells: HEK293A
T2 sequence (O43603 1-387 Y164F): T1 sequence (O43603 1-387 H102A) with A102H, Y164F
Protocol: as §1

GALR2 F264^ECL3A mutant = target: T3, GALR2 F264^ECL3A mutant (Homo sapiens, UniProt O43603, F264A); assay: NanoBiT-based Gq activation assay, F264^ECL3A; conditions: HEK293-A; HEK293A; expression ~WT (1:1); normalized to WT (1:1); mean ± SEM, n = 3; ns p > 0.05 vs expression-matched WT
T3 construct: expressed in transfected cells; host or cells: HEK293A
T3 sequence (O43603 1-387 F264A): T1 sequence (O43603 1-387 H102A) with A102H, F264A
Protocol: as §1

GALR2 L266^ECL3A mutant = target: T4, GALR2 L266^ECL3A mutant (Homo sapiens, UniProt O43603, L266A); assay: NanoBiT-based Gq activation assay, L266^ECL3A; conditions: HEK293-A; HEK293A; expression ~WT (1:1); normalized to WT (1:1); mean ± SEM, n = 3; ns p > 0.05 vs expression-matched WT
T4 construct: expressed in transfected cells; host or cells: HEK293A
T4 sequence (O43603 1-387 L266A): T1 sequence (O43603 1-387 H102A) with A102H, L266A
Protocol: as §1

[2] = target: T5, GALR2 R274^7.35×34A mutant (Homo sapiens, UniProt O43603, R274A); assay: NanoBiT-based Gq activation assay, R274^7.35×34A; conditions: HEK293-A
T5 construct: expressed in transfected cells; host or cells: HEK293A
T5 sequence (O43603 1-387 R274A): T1 sequence (O43603 1-387 H102A) with A102H, R274A
Protocol: as §1

## CC(C)C[C@H](NC(=O)CNC(=O)[C@H](CC(N)=O)NC(=O)[C@H](CCCCN)NC(=O)[C@H](CC(=O)O)NC(=O)[C@H](CO)NC(=O)[C@H](Cc1ccccc1)NC(=O)[C@H](CO)NC(=O)[C@H](CCCNC(=N)N)NC(=O)[C@H](Cc1c[nH]cn1)NC(=O)[C@H](CC(N)=O)NC(=O)CNC(=O)[C@@H](NC(=O)[C@H](C)NC(=O)[C@H](Cc1c[nH]cn1)NC(=O)[C@@H]1CCCN1C(=O)CNC(=O)[C@H](CC(C)C)NC(=O)[C@H](CC(C)C)NC(=O)[C@H](Cc1ccc(O)cc1)NC(=O)CNC(=O)[C@H](C)NC(=O)[C@H](CO)NC(=O)[C@H](CC(N)=O)NC(=O)[C@H](CC(C)C)NC(=O)[C@@H](NC(=O)[C@H](Cc1c[nH]c2ccccc12)NC(=O)CN)[C@@H](C)O)C(C)C)C(=O)N[C@H](C(=O)N[C@@H](CO)C(=O)O)[C@@H](C)O [galanin]
GALR2 H102^3.29A mutant
  Emax: 17.4 ± 2.4%
[1]
  Emax: 64.9 ± 2.4%
GALR2 F264^ECL3A mutant
  Emax: 90.3 ± 2.3%
GALR2 L266^ECL3A mutant
  Emax: 90.9 ± 10.5%
[2]
  Emax: 74.7 ± 5.9%
